According to paper PMC10747602, “Dose Response, Dosimetric, and Metabolic Evaluations of Replacement PFAS Perfluoro-(2,5,8-trimethyl-3,6,9-trioxadodecanoic) Acid (HFPO-TeA)” (Toxics, 2023):
Several values for one entry are separate records, joined by “and”; a condition that tells them apart may be missing. Equal values may be shown once.

Assays:
[1] = Ultracentrifugation plasma protein binding assay, human plasma; assay type: in vitro ADME; conditions: both sexes, human
Experimental: (§1) Information on the chemicals and materials used in the plasma protein binding work can be found in Supplementary Text S10 and Table S3. Human and rodent plasma were evaluated for plasma protein binding using ultracentrifugation, as previously described. Working solutions of 3 mM of HFPO-DA, HFPO-TA, and HFPO-TeA were prepared separately in ethanol, with each working solution containing 3 mM of testosterone (Sigma-Aldrich; ≥98% pure) as a reference compound for assay performance. An aliquot of each stock solution (13.3 µL) was added to separate 15 mL tubes with 3.987 mL of plasma for a final assay concentration of 10 µM. The plasma solutions were incubated at 37 °C and 125 rpm for 60 min. One-hour stability samples (T60 min) were drawn in triplicate and diluted in four volumes of plasma ultrafiltrate. Aliquots (1 mL) from each plasma solution were drawn in triplicate and transferred to polycarbonate tubing. These samples underwent ultracentrifugation (Beckman OptimaMax; Beckman Coulter Inc., Brea, CA, USA) at 850,000× g for 4 h at 37 °C.
(§2) The remaining plasma solutions were returned for incubation at 37 °C and 125 rpm for an additional 4 h. Five-hour stability samples (T300 min) were then drawn in triplicate and diluted in four volumes of plasma ultrafiltrate. After ultracentrifugation, the aqueous fraction (AF) was collected by transferring the supernatant to a new tube and diluting in an equal volume of plasma for matrix matching. All samples were combined with 3 volumes of ice-cold ACN containing 16 ng/mL of ^13C3-HFPO-DA and 16 ng/mL of ^13C-Testosterone (Cambridge Isotope Laboratories; 98% pure). Samples were vigorously mixed, stored for 10 min at −20 °C, and then centrifuged at 12,000× g for 10 min at 4 °C. Supernatants were collected then stored at −70 °C prior to analysis.
(§3) Fraction unbound (fu) in plasma (fup) and percent stability calculations are detailed in Supplementary Text S10. Hepatic clearance, the fu in blood (fub) (fu in plasma adjusted for blood:plasma partitioning), and renal clearance were used to derive the steady-state concentration (Css) of each compound that will be used for in vitro–in vivo extrapolation (IVIVE). Renal clearance was calculated using the glomerular filtration rate (a species-dependent constant) and the fub. The Css calculation is detailed in Supplementary Text S11.
(§4) The gradient is available in Table S11. […]
(§5) Chemical stability in plasma was assessed
(§6) (F) Percent Stability = T300minutesT60minutes∗100

Human plasma = assay: as above; assay type: in vitro ADME; conditions: for Experimental fup (average fraction unbound in plasma): 10 µM, ultracentrifugation; for Average Stability (T5hr/ T1hr) / Aqueous Fraction concentration / Fraction Unbound in plasma (fup) / Stability (T5hr/ T1hr) / Time 1 hr concentration / Time 5 hr concentration: 10000 nM; for Average Stability (T5hr/ T1hr): 37 °C; for Aqueous Fraction concentration: after ultracentrifugation; for Aqueous Fraction concentration / Fraction Unbound in plasma (fup) / Stability (T5hr/ T1hr) / Time 1 hr concentration / Time 5 hr concentration: replicates A-C
Experimental: as §1, §2, §3, §4, §5, §6

[2] = Ultracentrifugation plasma protein binding assay, rat plasma; assay type: in vitro ADME; conditions: both sexes, Sprague Dawley, rat, rat plasma, 10000 nM
Experimental: as §1, §2, §3, §4, §5, §6

[3] = system: Sprague Dawley rodent plasma; assay: as above; assay type: in vitro ADME; conditions: rat plasma, 10000 nM
Experimental: as §1, §2, §3, §4, §5, §6

[4] = design: method as in PMID 21948869, PMID 36309054; conditions: cited from earlier work

C[C@]12CC[C@H]3[C@@H](CCC4=CC(=O)CC[C@@]43C)[C@@H]1CC[C@@H]2O [Testosterone]
fraction unbound at 4 h, 10 µM ([1]; plasma, 10 µM, ultracentrifugation, read-out: Experimental fup (average fraction unbound in plasma)): 0.048 | fraction unbound at 4 h, 10 µM ([1]; pooled human plasma, 10000 nM, replicates A-C, read-out: Fraction Unbound in plasma (fup)): 0.0537 | Experimental fup (average fraction unbound in plasma) (Human plasma): 0.0417 | Experimental fup (average fraction unbound in plasma) (Human plasma; listed as Tesosterone): 0.0359 | Average Stability (T5hr/ T1hr) (Human plasma): 1.1059 and 0.9812 | Average Stability (T5hr/ T1hr) (Human plasma; listed as Tesosterone): 1.0002 | Aqueous Fraction concentration (Human plasma): 546.88 nM and 521.28 nM and 574.4 nM and 376.32 nM and 357.12 nM and 381.76 nM | Aqueous Fraction concentration (Human plasma; listed as Tesosterone): 293.12 nM and 277.12 nM and 292.16 nM | Fraction Unbound in plasma (fup) (Human plasma): 0.0442 and 0.0462 and 0.0429 and 0.0406 and 0.0415 | Stability (T5hr/ T1hr) (Human plasma): 0.9564 and 1.2770 and 1.0843 and 0.9797 and 0.9599 and 1.0039 | Time 1 hr concentration (Human plasma): 10.6456 µM and 9.2344 µM and 11.4704 µM and 8.9504 µM and 9.1664 µM and 9.1736 µM | Time 5 hr concentration (Human plasma): 10.1816 µM and 11.792 µM and 12.4368 µM and 8.7688 µM and 8.7984 µM and 9.2096 µM | Fraction Unbound in plasma (fup) (Human plasma; listed as Tesosterone): 0.0369 and 0.0320 and 0.0386 | Stability (T5hr/ T1hr) (Human plasma; listed as Tesosterone): 0.9569 and 1.1423 and 0.9014 | Time 1 hr concentration (Human plasma; listed as Tesosterone): 8.3008 µM and 7.576 µM and 8.3888 µM | Time 5 hr concentration (Human plasma; listed as Tesosterone): 7.9432 µM and 8.6544 µM and 7.5616 µM | fraction unbound at 4 h, 10 µM ([2]; Rep A, read-out: Fraction Unbound in plasma (fup), Rep A): 0.0553 | fraction unbound at 4 h, 10 µM ([2]; Rep B, read-out: Fraction Unbound in plasma (fup), Rep B): 0.0589 | fraction unbound at 4 h, 10 µM ([2]; Rep C, read-out: Fraction Unbound in plasma (fup), Rep C): 0.0507 | fraction unbound at 4 h, 10 µM ([2]; ultracentrifugation, read-out: Average fup (fraction unbound in plasma)): 0.0549 | Average Stability (T5hr/ T1hr) [3]: 1.0825 and 0.9487 and 1.0344 | Aqueous Fraction, Rep A ([3]; Rep A): 659.2 nM and 463 nM and 481 nM | Fraction Unbound in plasma (fup), Rep A ([3]; Rep A): 0.05346 and 0.05095 | Stability (T5hr/ T1hr), Rep A ([3]; Rep A): 1.0325 and 0.8708 and 1.0149 | Time 1 hr concentration, Rep A ([3]; Rep A): 11.552 µM and 9.9536 µM and 9.3008 µM | Time 5 hr concentration, Rep A ([3]; Rep A): 11.928 µM and 8.6672 µM and 9.4392 µM | Aqueous Fraction, Rep B ([3]; Rep B): 678.4 nM and 491 nM and 472 nM | Fraction Unbound in plasma (fup), Rep B ([3]; Rep B): 0.0545 | Stability (T5hr/ T1hr), Rep B ([3]; Rep B): 1.1304 and 0.9004 | Time 1 hr concentration, Rep B ([3]; Rep B): 10.184 µM and 10.0112 µM and 8.783 µM | Time 5 hr concentration, Rep B ([3]; Rep B): 11.512 µM and 9.0136 µM | Aqueous Fraction, Rep C ([3]; Rep C): 681.6 nM and 481.28 nM and 439 nM | Fraction Unbound in plasma (fup), Rep C ([3]; Rep C): 0.04493 and 0.05209 | Stability (T5hr/ T1hr), Rep C ([3]; Rep C): 1.0845 and 1.0750 and 1.0540 | Time 1 hr concentration, Rep C ([3]; Rep C): 12.408 µM and 9.964 µM and 7.99 µM | Time 5 hr concentration, Rep C ([3]; Rep C): 13.456 µM and 10.7112 µM and 8.4216 µM | Average fup (fraction unbound in plasma) ([3]; ultracentrifugation): 0.0510 and 0.0515

O=S(=O)(O)C(F)(F)C(F)(F)C(F)(F)C(F)(F)C(F)(F)C(F)(F)C(F)(F)C(F)(F)F [PFOS, perfluorooctane sulfonic acid]
underestimation of Css values by previous IVIVE evaluations [4]: > 100 ×
